Test results as given in PMC12349723, “Computationally accelerated identification of P-glycoprotein inhibitors” (PLOS One, 2025).
Where two headings read alike, the source gives them in different places.

Columns and labels:
DU145-TXR cells = assay: MTT viability assay, reversal of MDR (re-sensitization to paclitaxel) in P-gp overexpressing DU145-TXR cells; format: cell-based, human; conditions: for % Survival, mean / % Survival: 15 µM compound + 500 nM PTX (Paclitaxel, Taxol); for % Survival, mean / % Survival / viability at 15 µM: DU145-TXR; for Re-sensitization of DU145-TXR cells to PTX (reversal of MDR): 15 µM compound with or without 500 nM PTX, 48 h, MTT, re-sensitization = 30% or greater decrease in cell viability; for viability at 15 µM: Homo sapiens, 15 µM Compound Alone
Procedure: The chemotherapeutic sensitive DU145 human prostate cancer cells and the multidrug resistant sub-line, DU145-TXR, were generous gifts from Dr. Evan Keller (University of Michigan, Ann Arbor, MI). The MDR, P-gp overexpressing DU145-TXR cells were maintained under positive selection pressure by supplementing complete medium with 10 nM paclitaxel (Acros Organics, NJ). In addition to the aforementioned cell lines, the chemotherapeutic sensitive A2780 ovarian cancer cells (93112519, Sigma) and the multidrug resistant A2780-ADR (93112520, Sigma) were maintained in complete RPMI media consisting of RPMI-1640 with L-glutamine, 10% fetal bovine serum (FBS; Corning), 100 U/mL penicillin and 100 μg/mL streptomycin in a humidified incubator at 37 °C and 5% CO2. The MDR, P-gp overexpressing A2780-ADR cell line was maintained under positive selection pressure by supplementing complete medium with 100 nM doxorubicin (Fisher Scientific, NJ). The non-cancerous HFL1 (human lung fibroblast) cell line cell line was a generous gift from Dr. Robert Harrod (Southern Methodist University, Dallas, TX) and was maintained in complete F12K media consisting of F12K with 10% fetal bovine serum, 100 U/mL penicillin, and 100 µg/mL streptomycin (Gibco). Flasks and 96 well plates that were used with the non-cancerous line HFL1 were pre-treated with 0.1 mg/ml Collagen Type 1 (Gibco) and rinsed with PBS (Fisher).
(§1) Culture of the DU145, DU145-TXR, and HFL1 cell lines was performed as described in [8]. Culture of the A2780 and A2780-ADR cell lines was performed as described in [9]. MTT assays were performed as described in [8] with minor modifications. LC-MS/MS accumulation assays were performed as described in {Nanayakkara, 2018 #173} [9] with some modifications. […] The inhibitor concentration was lowered to 15 µM here, as the goal of the study was to identify compounds that were effective in reversing MDR at low concentrations, and to determine if the expanded virtual-assisted methods improved on our first-draft attempt. Compounds 56–98 were pre-screened using Resazurin cell viability assays: cells were incubated with 15 µM compound with or without 500 nM PTX for 48 hours, after which cell survival was assessed similar to [39]. Data represent the mean of two separate experiments, with n = 3 samples per experiment (n = 6 total) (S4 Table). The top performing compounds from this initial screen were re-tested with MTT viability assays against DU145-TXR cells, as described below.
MTT assays measure the reduction of yellow, water soluble 3-(4,5-dimethylthiazol-2-yl)-2,5-diphenyltetrazolium bromide (MTT) to blue, insoluble formazan crystals by cellular reductase processes in living cells. Cells were trypsinized from monolayers and seeded in complete medium in 96 well plates. Cancerous cell lines (DU145, DU145-TXR, A2780, A2780-ADR) were seeded at 3,000 cells per well in complete RPMI medium. The non-cancerous HFL1 line was seeded at 4,000 cells per well in complete F12K medium, in collagen-treated plates (Collagen Type 1, Gibco). Cells were incubated with experimental compounds for 48 hours at 37 °C and 5% CO2 in a humidified incubator. At 48 hours, MTT was added (20 µL/well of 5 mg/mL MTT in PBS) to each well. After incubation for 4 hours, the media was removed, and the formazan crystals were dissolved in 100 µL DMSO per well. Plates containing the semi-adherent A2780 or A2780-ADR lines were spun at 1400 rpm for 3 minutes prior to aspiration of media, and the addition of DMSO. Plates were shaken for 10 minutes at 500 rpm on an Orbital shaker (LabDoctor from MidSci, St Louis, MO). The absorbance was measured at 570 nm using a Bio-Tek Cytation 5 (Bio-Tek, Winooski, VT). The measured absorbance value was correlated with the number of metabolically active cells in that well, corrected for absorbance of media. […]

[1] = Resazurin cell viability pre-screen in DU145-TXR cells with or without PTX; format: cell-based; conditions: human, mean of two experiments in triplicate, read-out: Viability, 15 µM compound alone
Procedure: as §1
S4 Table. Pre-screening of compounds 56 – 98 against DU145-TXR cells with resazurin assays. DU145-TXR cells were incubated with 15 µM compound with or without 500nM PTX for 48 hrs; survival was subsequently determined with the Resazurin viability assay ^[37]. […] Percent re-sensitization is defined as the percent change in viability between cells treated with compound and PTX, versus cells treated with PTX alone. In some instances, the assay reported an increase in viability with compound + PTX, and no percent sensitization is reported. ‘Follow-up Testing’ compounds were re-assessed with MTT assays (Figure 1). Compounds 59 and 89 (*, ‘Follow-up Testing’) were used as negative controls in follow-up MTT assays to test for consistency of results, e.g. to confirm that molecules eliminated in Resazurin assays were justifiably eliminated from later screening with MTT assays.

[2] = mean of 8 samples, read-out: % Survival, mean
[3] = trial 1, sample 1, read-out: % Survival
[4] = trial 1, sample 2, read-out: % Survival
[5] = trial 1, sample 3, read-out: % Survival
[6] = trial 1, sample 4, read-out: % Survival
[7] = trial 2, sample 1, read-out: % Survival
[8] = trial 2, sample 2, read-out: % Survival
[9] = trial 2, sample 3, read-out: % Survival
[10] = trial 2, sample 4, read-out: % Survival

Structure (SMILES)	% Survival, mean (DU145-TXR cells; mean of 8 samples)	% Survival (DU145-TXR cells; trial 1, sample 1)	% Survival (DU145-TXR cells; trial 1, sample 2)	% Survival (DU145-TXR cells; trial 1, sample 3)	% Survival (DU145-TXR cells; trial 1, sample 4)	% Survival (DU145-TXR cells; trial 2, sample 1)	% Survival (DU145-TXR cells; trial 2, sample 2)	% Survival (DU145-TXR cells; trial 2, sample 3)	% Survival (DU145-TXR cells; trial 2, sample 4)	Re-sensitization of DU145-TXR cells to PTX (reversal of MDR) (DU145-TXR cells)	viability at 15 µM (DU145-TXR cells; [2])	viability at 15 µM (DU145-TXR cells; [3])	viability at 15 µM (DU145-TXR cells; [4])	viability at 15 µM (DU145-TXR cells; [5])	viability at 15 µM (DU145-TXR cells; [6])	viability at 15 µM (DU145-TXR cells; [7])	viability at 15 µM (DU145-TXR cells; [8])	viability at 15 µM (DU145-TXR cells; [9])	viability at 15 µM (DU145-TXR cells; [10])	viability at 48 h, 15 µM [1]
Cn1cnnc1SCc1c(C(=O)O)nnn1-c1nonc1N [Compound 59, Cn1cnnc1SCc1c(nnn1-c1nonc1N)C(O)=O]	114.8%	116%	115%	139%	150%	95%	97%	95%	111%	did not reverse MDR in DU145-TXR cells	107%	132%	105%	116%	103%	103%	102%	99%	99%	101%
Nc1nonc1-n1nnc(C(=O)N/N=C/c2c3ccccc3cc3ccccc23)c1COc1ccc(F)cc1 [Compound 60, Nc1nonc1-n1nnc(C(=O)N\N=C\c2c3ccccc3cc3ccccc23)c1COc1ccc(F)cc1]	92.8%	84%	102%	83%	120%	83%	92%	89%	89%		93.6%	100%	103%	90%	96%	93%	88%	95%	83%	88%
CCN1CCN(Cc2c(C(=O)N/N=C3/C(=O)N(C)c4ccccc43)nnn2-c2nonc2N)CC1 [Compound 61, CCN1CCN(Cc2c(nnn2-c2nonc2N)C(=O)N\N=C2\C(=O)N(C)c3ccccc23)CC1]	51.6%	62%	67%	64%	77%	33%	35%	31%	44%	re-sensitized DU145-TXR cells to PTX	99.3%	118%	117%	119%	123%	93%	75%	77%	72%	98.8%
O=C(c1cc2ccccc2[nH]1)N1CCN(S(=O)(=O)c2cccc3nonc23)CC1 [Compound 66, O=C(N1CCN(CC1)S(=O)(=O)c1cccc2nonc12)c1cc2ccccc2[nH]1]	81.6%	89%	94%	92%	90%	73%	76%	68%	70%		84.2%	87%	96%	92%	90%	76%	73%	78%	82%	98.3%
O=C(c1nc(-c2ccc3cc[nH]c3c2)no1)N1CCN(c2nsc3ccccc23)CC1 [Compound 70, O=C(N1CCN(CC1)c1nsc2ccccc12)c1nc(no1)-c1ccc2cc[nH]c2c1]	47.0%	51%	55%	50%	54%	41%	36%	46%	43%	re-sensitized DU145-TXR cells to PTX	91.3%	92%	103%	101%	96%	90%	83%	85%	80%	99.2%
COc1ccc(OC)c(NC(=O)c2nnn(-c3ccc4noc(-c5ccccc5)c4c3)c2C)c1 [Compound 71, COc1ccc(OC)c(NC(=O)c2nnn(c2C)-c2ccc3noc(-c4ccccc4)c3c2)c1]	41.6%	48%	45%	45%	51%	33%	33%	36%	42%		33.8%	44%	33%	39%	41%	36%	25%	28%	25%	93%
